Results on 32 molecules are retold here after US7211587B2, “Quinoline derivatives and quinazoline derivatives having azolyl group” (Kirin Beer Kabushiki Kaisha, priority 2001, dated 2007).

Structures are written as SMILES. Some results are limits rather than exact numbers.

The target of the assay is T1, human KDR (Homo sapiens, UniProt P35968).
T1 construct: expressed in transfected cells; host or cells: NIH 3T3 cells (mouse fibroblasts) stably expressing human KDR
T1 sequence (P35968 20-1356): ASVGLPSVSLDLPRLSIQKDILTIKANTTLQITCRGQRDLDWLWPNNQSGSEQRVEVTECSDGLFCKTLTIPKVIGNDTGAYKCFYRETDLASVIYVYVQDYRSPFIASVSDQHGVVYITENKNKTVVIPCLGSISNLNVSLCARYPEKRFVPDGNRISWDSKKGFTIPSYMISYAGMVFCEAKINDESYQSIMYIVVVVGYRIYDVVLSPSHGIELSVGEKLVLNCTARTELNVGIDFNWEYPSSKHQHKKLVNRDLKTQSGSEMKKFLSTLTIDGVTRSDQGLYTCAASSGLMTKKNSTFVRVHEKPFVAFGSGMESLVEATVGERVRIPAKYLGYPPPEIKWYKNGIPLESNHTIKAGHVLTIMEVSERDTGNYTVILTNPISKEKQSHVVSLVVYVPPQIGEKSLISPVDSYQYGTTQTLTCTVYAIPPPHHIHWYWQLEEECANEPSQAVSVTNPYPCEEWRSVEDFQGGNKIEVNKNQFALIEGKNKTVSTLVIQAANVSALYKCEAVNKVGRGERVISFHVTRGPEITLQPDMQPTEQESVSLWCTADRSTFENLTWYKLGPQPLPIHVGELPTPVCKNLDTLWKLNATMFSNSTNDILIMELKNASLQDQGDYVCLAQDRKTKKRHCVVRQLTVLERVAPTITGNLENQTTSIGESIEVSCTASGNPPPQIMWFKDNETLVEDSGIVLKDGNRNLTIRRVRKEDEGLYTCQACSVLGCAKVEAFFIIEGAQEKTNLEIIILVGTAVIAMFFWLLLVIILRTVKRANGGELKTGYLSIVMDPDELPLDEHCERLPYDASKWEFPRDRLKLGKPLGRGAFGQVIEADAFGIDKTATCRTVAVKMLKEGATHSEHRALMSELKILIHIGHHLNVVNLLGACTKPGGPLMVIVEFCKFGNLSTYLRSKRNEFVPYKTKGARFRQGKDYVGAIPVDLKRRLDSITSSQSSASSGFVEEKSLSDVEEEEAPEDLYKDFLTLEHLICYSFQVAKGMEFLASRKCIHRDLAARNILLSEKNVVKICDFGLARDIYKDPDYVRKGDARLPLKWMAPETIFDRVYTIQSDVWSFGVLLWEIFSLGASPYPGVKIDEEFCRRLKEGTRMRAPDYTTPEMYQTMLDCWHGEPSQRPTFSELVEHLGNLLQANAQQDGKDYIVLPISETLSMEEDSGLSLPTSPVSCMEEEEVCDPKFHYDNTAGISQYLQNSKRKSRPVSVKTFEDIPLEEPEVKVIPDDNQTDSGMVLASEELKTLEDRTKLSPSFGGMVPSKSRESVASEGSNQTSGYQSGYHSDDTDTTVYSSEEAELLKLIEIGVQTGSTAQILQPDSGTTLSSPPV
Description: Inhibitory activity against KDR phosphorylation by ELISA (VEGF-stimulated NIH 3T3 cells expressing human KDR). Format: cell-based. As to conditions: VEGF 100 ng/ml, compound 1 hr, read-out: IC50 (inhibition of KDR phosphorylation). Here is the method:
The harvested cells were inoculated into wells of a collagen-type one-coat 96-well flat-bottom plate, each containing the same medium, in an amount of 1.5×10^4 per well, followed by cultivation at 37° C. overnight. The medium was then replaced by a DMEM medium containing 0.1% fetal calf serum. A solution of a test compound in dimethyl sulfoxide was added to each well, and the cultivation was continued at 37° C. for additional one hr. A human recombinant vascular endothelial growth factor (hereinafter abbreviated to “VEGF”) was added to a final concentration of 100 ng/ml, and the stimulation of cells was carried out at 37° C. for 2 min. The medium was removed, the cells were washed with phosphate buffered saline (pH 7.4), and 50 μl of a solubilization buffer (20 mM HEPES (pH 7.4), 150 mM NaCl, 0.2% Triton X-100, 10% glycerol, 5 mM sodium orthovanadylate, 5 mM disodium ethylenediaminetetraacetate, and 2 mM Na4P2O7) was then added thereto. The mixture was shaken at 4° C. for 2 hr to prepare a cell extract.
Separately, phosphate buffered saline (50 μl, pH 7.4) containing 5 μg/ml of an anti-phospho-tyrosine antibody (PY20; purchased from Transduction Laboratories) was added to a microplate for ELISA (Maxisorp; purchased from NUNC), followed by standing at 4° C. overnight to form a solid phase on the wells. After washing of the plate, 300 μl of a blocking solution was added, followed by standing at room temperature for 2 hr to perform blocking. After washing, the whole quantity of the cell extract was transferred to the wells, and the plate was then allowed to stand at 4° C. overnight. After washing, an anti-KDR antibody (purchased from Santa Cruz) was allowed to react at room temperature for one hr, and, after washing, a peroxidase-labeled anti-rabbit Ig antibody (purchased from Amersham) was allowed to react at room temperature for one hr. After washing, a chromophoric substrate for peroxidase (purchased from Sumitomo Bakelite Co., Ltd.) was added thereto to initiate a reaction. After a suitable level of color development, a reaction termination solution was added to stop the reaction, and the absorbance at 450 nm was measured with a microplate reader. The KDR phosphorylation activity for each well was determined by presuming the absorbance with the addition of VEGF and without the addition of the medicament to be 100% KDR phosphorylation activity and the absorbance without the addition of the medicament and VEGF to be 0% KDR phosphorylation activity.
(In general: An ELISA detects its analyte on a solid surface through an enzyme-linked reagent.)
In the case of `COc1cc2ncnc(Oc3ccc(NC(=O)Nc4nc(C)c(C)s4)cc3)c2cc1OC` [Ex. 45, N-{4-[(6,7-Dimethoxy-4-quinazolinyl)oxy]-phenyl}-N′-(4,5-dimethyl-1,3-thiazol-2-yl)urea], the IC50 was < 1 nM.

Consider `CCc1nnc(NC(=O)Nc2ccc(Oc3ccnc4cc(OC)c(OC)cc34)c(F)c2)s1` [Ex. 64, N-{4-[(6,7-Dimethoxy-4-quinolyl)oxy]-3-fluorophenyl}-N′-(5-ethyl-1,3,4-thiadiazol-2-yl)urea], for which the IC50 amounted to 1.5 nM.

In the case of `CCSc1nnc(NC(=O)Nc2ccc(Oc3ccnc4cc(OC)c(OC)cc34)c(C)c2C)s1` [Ex. 71, N-{4-[(6,7-Dimethoxy-4-quinolyl)oxy]-2,3-dimethylphenyl}-N′-[5-(ethylsulfanyl)-1,3,4-thiadiazol-2-yl]urea], the IC50 amounted to 3.1 nM.

In the case of `COc1cc2ncnc(Oc3ccc(NC(=O)Nc4cc(C)on4)c(Cl)c3)c2cc1OC` [Ex. 12, N-{2-Chloro-4-[(6,7-dimethoxy-4-quinazolinyl)oxy]phenyl}-N′-(5-methyl-3-isoxazolyl)urea], the half-inhibitory concentration (IC50) is < 1 nM.

For `COc1cc2nccc(Oc3ccc(NC(=O)Nc4nc(C(C)(C)C)cs4)c(Cl)c3)c2cc1OC` [Ex. 33, N-[4-(Tert-butyl)-1,3-thiazol-2-yl]-N′-{2-chloro-4-[(6,7-dimethoxy-4-quinolyl)oxy]phenyl}urea], the half-maximal inhibitory concentration (IC50) was 21.1 nM.

`COc1cc2nccc(Oc3ccc(NC(=O)Nc4nnc(C(C)(C)C)s4)c(F)c3)c2cc1OC` [Ex. 74, N-[5-(Tert-butyl)-1,3,4-thiadiazol-2-yl]-N′-{4-[(6,7-dimethoxy-4-quinolyl)oxy]-2-fluorophenyl}urea]: the IC50 worked out at 3 nM.

Turning to `COc1cc2nccc(Oc3ccc(NC(=O)Nc4nnc(C5CC5)s4)c(Cl)c3)c2cc1OC` [Ex. 67, N-{2-Chloro-4-[(6,7-dimethoxy-4-quinolyl)oxy]phenyl}-N′-(5-cyclopropyl-1,3,4-thiadiazol-2-yl)urea], the IC50 was found to be 2.4 nM.

For the molecule `COc1cc2ncnc(Oc3ccc(NC(=O)Nc4cc(C)on4)cc3)c2cc1OC` [Ex. 10, N-{4-[(6,7-Dimethoxy-4-quinazolinyl)oxy]-phenyl}-N′-(5-methyl-3-isoxazolyl)urea], the IC50 turned out to be 3.6 nM.

In the case of `COc1cc2ncnc(Oc3ccc(NC(=O)Nc4cc(C)on4)cc3Cl)c2cc1OC` [Ex. 14, N-{3-Chloro-4-[(6,7-dimethoxy-4-quinazolinyl)oxy]phenyl}-N′-(5-methyl-3-isoxazolyl)urea], the 50% inhibitory concentration (IC50) is 4.4 nM.

Take `COc1cc2ncnc(Oc3ccc(NC(=O)Nc4cc(C)ns4)cc3)c2cc1OC` [Ex. 16, N-{4-[(6,7-Dimethoxy-4-quinazolinyl)oxy]-phenyl}-N′-(3-methyl-5-isothiazolyl)urea]: the IC50 came out at 54.9 nM.

For `COc1cc2nccc(Oc3ccc(NC(=O)Nc4ncc(Br)s4)c(F)c3)c2cc1OC` [Ex. 35, N-(5-Bromo-1,3-thiazol-2-yl)-N′-{4-[(6,7-dimethoxy-4-quinolyl)oxy]-2-fluorophenyl}urea], the IC50 was found to be 1.9 nM.

As to `COc1cc2ncnc(Oc3ccc(NC(=O)Nc4nc(C)cs4)cc3)c2cc1OC` [Ex. 44, N-{4-[(6,7-Dimethoxy-4-quinazolinyl)oxy]-phenyl}-N′-(4-methyl-1,3-thiazol-2-yl)urea], the IC50 turned out to be 1.1 nM.

Take `COc1cc2nccc(Oc3ccc(NC(=O)Nc4ccon4)cc3Cl)c2cc1OC` [Ex. 1, N-{3-Chloro-4-[(6,7-dimethoxy-4-quinolyl)oxy]phenyl}-N′-(3-isoxazolyl)urea]: the IC50 was 2.3 nM.

In the case of `COc1cc2nccc(Oc3ccc(NC(=O)Nc4ccn[nH]4)cc3Cl)c2cc1OC` [Ex. 19, N-{3-Chloro-4-[(6,7-dimethoxy-4-quinolyl)oxy]phenyl}-N′-(1H-5-pyrazolyl)urea], the IC50 stood at 17.5 nM.

In the case of `COc1cc2nccc(Oc3ccc(NC(=O)Nc4nnc(C(F)(F)F)s4)c(Cl)c3)c2cc1OC` [Ex. 72, N-{2-Chloro-4-[(6,7-dimethoxy-4-quinolyl)oxy]phenyl}-N′-[5-(trifluoromethyl)-1,3,4-thiadiazol-2-yl]urea], the IC50 was determined as 2.9 nM.

Regarding `COc1cc2nccc(Oc3ccc(NC(=O)Nc4ncc(Cl)s4)c(Cl)c3)c2cc1OC` [Ex. 34, N-{2-Chloro-4-[(6,7-dimethoxy-4-quinolyl)oxy]phenyl}-N′-(5-chloro-1,3-thiazol-2-yl)urea], the IC50 was determined as 2.8 nM.

Regarding `COc1cc2nccc(Oc3ccc(NC(=O)Nc4nc(C)c(C)s4)c(C(F)(F)F)c3)c2cc1OC` [Ex. 26, N-[4-[(6,7-Dimethoxy-4-quinolyl)oxy]-2-(trifluoromethyl)phenyl]-N′-(4,5-dimethyl-1,3-thiazol-2-yl)urea], the IC50 was 5 nM.

Regarding `COc1cc2ncnc(Oc3ccc(NC(=O)Nc4cc(C)no4)cc3Cl)c2cc1OC` [Ex. 15, N-{3-Chloro-4-[(6,7-dimethoxy-4-quinazolinyl)oxy]phenyl}-N′-(3-methyl-5-isoxazolyl)urea], the IC50 amounted to 13.4 nM.

With `COc1cc2nccc(Oc3ccc(NC(=O)Nc4nnc(C(F)(F)F)s4)cc3Cl)c2cc1OC` [Ex. 73, N-{3-Chloro-4-[(6,7-dimethoxy-4-quinolyl)oxy]phenyl}-N′-[5-(trifluoromethyl)-1,3,4-thiadiazol-2-yl]urea], the IC50 was determined as 21 nM.

With `COc1cc2ncnc(Oc3ccc(NC(=O)Nc4ncc(C)s4)cc3)c2cc1OC` [Ex. 43, N-{4-[(6,7-Dimethoxy-4-quinazolinyl)oxy]-phenyl}-N′-(5-methyl-1,3-thiazol-2-yl)urea], the 50% inhibitory concentration (IC50) is < 1 nM.

Take `COc1cc2nccc(Oc3ccc(NC(=O)Nc4nnc(C(C)(C)C)s4)c(C)c3C)c2cc1OC` [Ex. 75, N-[5-(Tert-butyl)-1,3,4-thiadiazol-2-yl]-N′-{4-[(6,7-dimethoxy-4-quinolyl)oxy]-2,3-dimethylphenyl}-urea]: the IC50 was found to be 4.5 nM.

Regarding `COc1cc2nccc(Oc3ccc(NC(=O)Nc4ccn[nH]4)c(F)c3)c2cc1OC` [Ex. 20, N-{4-[(6,7-Dimethoxy-4-quinolyl)oxy]-2-fluorophenyl}-N′-(1H-5-pyrazolyl)urea], the IC50 is 4.2 nM.

`COc1cc2ncnc(Oc3ccc(NC(=O)Nc4nccs4)cc3)c2cc1OC` [Ex. 42, N-{4-[(6,7-Dimethoxy-4-quinazolinyl)oxy]-phenyl}-N′-(1,3-thiazol-2-yl)urea]: the IC50 was determined as 4.7 nM.

On to `CCc1nnc(NC(=O)Nc2ccc(Oc3ccnc4cc(OC)c(OC)cc34)c(Cl)c2)s1` [Ex. 66, N-{3-Chloro-4-[(6,7-dimethoxy-4-quinolyl)oxy]phenyl}-N′-(5-ethyl-1,3,4-thiadiazol-2-yl)urea], for which the IC50 was found to be 3.7 nM.

With `COc1cc2ncnc(Oc3ccc(NC(=O)Nc4cc(C)ns4)c(Cl)c3)c2cc1OC` [Ex. 17, N-{2-Chloro-4-[(6,7-dimethoxy-4-quinazolinyl)oxy]phenyl}-N′-(3-methyl-5-isothiazolyl)-urea], the IC50 is 4.9 nM.

As to `COc1cc2nccc(Oc3ccc(NC(=O)Nc4cc(C)no4)cc3Cl)c2cc1OC` [Ex. 2, N-{3-Chloro-4-[(6,7-dimethoxy-4-quinolyl)oxy]phenyl}-N′-(3-methyl-5-isoxazolyl)urea], the IC50 was determined as 2 nM.

As to `CCc1nnc(NC(=O)Nc2ccc(Oc3ccnc4cc(OC)c(OC)cc34)cc2C)s1` [Ex. 60, N-{4-[(6,7-Dimethoxy-4-quinolyl)oxy]-2-methylphenyl}-N′-(5-ethyl-1,3,4-thiadiazol-2-yl)urea], the IC50 was < 1 nM.

With `CCc1nnc(NC(=O)Nc2ccc(Oc3ccnc4cc(OC)c(OC)cc34)cc2)s1` [Ex. 59, N-{4-[(6,7-Dimethoxy-4-quinolyl)oxy]phenyl}-N′-(5-ethyl-1,3,4-thiadiazol-2-yl)urea], the IC50 stood at 1.3 nM.

As for `CCOC(=O)Cc1csc(NC(=O)Nc2ccc(Oc3ccnc4cc(OC)c(OC)cc34)cc2Cl)n1` [Ex. 31, Ethyl 2-{2-[({2-chloro-4-[(6,7-dimethoxy-4-quinolyl)oxy]anilino}carbonyl)amino]-1,3-thiazol-4-yl}acetate], the IC50 was 33.9 nM.

`CCc1nnc(NC(=O)Nc2ccc(Oc3ccnc4cc(OC)c(OC)cc34)c(C)c2C)s1` [Ex. 62, N-{4-[(6,7-Dimethoxy-4-quinolyl)oxy]-2,3-dimethylphenyl}-N′-(5-ethyl-1,3,4-thiadiazol-2-yl)urea]: the half-maximal inhibitory concentration (IC50) worked out at 1.5 nM.

`COc1cc2ncnc(Oc3ccc(NC(=O)Nc4nc(C)cs4)cc3Cl)c2cc1OC` [Ex. 48, N-{3-Chloro-4-[(6,7-dimethoxy-4-quinazolinyl)oxy]phenyl}-N′-(4-methyl-1,3-thiazol-2-yl)urea]: the IC50 was found to be 4.4 nM.

Consider `COc1cc2ncnc(Oc3ccc(NC(=O)Nc4cc(C)ns4)cc3Cl)c2cc1OC` [Ex. 18, N-{3-Chloro-4-[(6,7-dimethoxy-4-quinazolinyl)oxy]phenyl}-N′-(3-methyl-5-isothiazolyl)-urea], for which the IC50 turned out to be 69.7 nM.

The term IC50 denotes the midpoint of a concentration-inhibition curve.
